Experimental data taken from patent US20230151034A1 (COCRYSTAL PHARMA, INC., priority 2020, published 2023).
Like-named read-outs stand apart in the source and are kept apart here.

Columns and labels:
[1] = target: HuNV GGII.4 Norovirus protease (Norovirus GII.4 (human norovirus genogroup II genotype 4), UniProt P54634); assay: Norovirus protease FRET assay (HuNV GGII.4); assay type: biochemical; conditions: FRET protease assay, read-out: HuNV GGII.4 IC50
[2] = target: Norwalk GGI.1 Norovirus protease (Norovirus, UniProt Q83883); assay: Noro-Norwalk FRET protease assay (Norwalk GGI.1); assay type: biochemical, Norwalk virus; conditions: FRET protease assay, read-out: Norwalk GGI.1 IC50
Chain of Norwalk GGI.1 Norovirus protease (Q83883 1101-1281): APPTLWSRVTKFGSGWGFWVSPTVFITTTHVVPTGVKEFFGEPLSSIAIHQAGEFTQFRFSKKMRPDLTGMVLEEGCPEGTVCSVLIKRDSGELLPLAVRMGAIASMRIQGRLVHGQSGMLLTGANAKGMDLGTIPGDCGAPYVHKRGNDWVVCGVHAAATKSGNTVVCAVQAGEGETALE
Description: Viral protease assays: The antiviral activities of inhibitors were determined by FRET (Fluorescence Resonance Energy Transfer) assay. Purified viral protease was incubated with the protease substrate peptide (Edans-DFHLQ/GP-Dabcyl) and inhibitor, and IC50 values were subsequently determined by the fluorescence signals.
The Noro-Norwalk FRET protease assay was performed in 50 mM HEPES-Na pH 8, 50 mM NaCl, 0.4 mM EDTA, 4% glycerol, and 6 mM DTT. A self-quenching peptide substrate [5-FAM]-[…]-[TAMRA] was custom synthesized by Anaspec. Compounds were diluted in 3-fold serial dilutions to final concentrations of 200 μM to 10.2 nM. Noro protease was added to a final concentration of 1-7 μM, depending on the enzyme activity level, and the peptide substrate was added to a final concentration of 10 μM. The assay was incubated 90 minutes at 37° C. and read in a Perkin Elmer Envision with excitation at 473 nm and emission measurement at 519 nm.

SARS2 protease = SARS2 protease (Severe acute respiratory syndrome coronavirus 2, UniProt P0DTD1); assay: SARS-CoV-2 protease inhibition assay (SARS2 FRET protease assay); assay type: biochemical; conditions: Table E; SARS-CoV-2 protease inhibition; read-out: IC50
How it was run: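 SARS-CoV-2 protease (25 nM) was incubated for 30 min at 30 °C with 1.3 μM quenched 5-FAM/TAMRA peptide substrate and compound (3-fold dilutions, 20 μM–1.0 nM). The buffer was 20 mM HEPES-Na pH 7, 120 mM NaCl, 0.4 mM EDTA, 0.01% Triton, 5% glycerol and 4 mM DTT. Fluorescence was read at ex 473 and em 519 nm, and IC50 was derived.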

Chain of HuNV GGII.4 Norovirus protease (P54634 1009-1189): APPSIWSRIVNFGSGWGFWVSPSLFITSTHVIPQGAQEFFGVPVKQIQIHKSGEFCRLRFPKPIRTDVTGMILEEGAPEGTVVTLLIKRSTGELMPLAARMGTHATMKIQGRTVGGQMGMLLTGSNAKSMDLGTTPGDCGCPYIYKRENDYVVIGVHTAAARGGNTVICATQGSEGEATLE

Row | Structure (SMILES) | IC50 ([1]; Table D) [µM] | IC50 ([2]; Table D) [µM] | IC50 (SARS2 protease) [µM] | IC50 ([1]; Table C) [µM] | IC50 ([2]; Table C) [µM]
1 | CCCCCCCC1CC/C=C/CC(C(=O)NC)C[C@@H](C(=O)N(C)OC)NC(=O)C(CC(C)C)NC(=O)O1 (single isomer, unassigned) [Compound B37] | > 200 | > 200 | > 200 |  | 
2 | CCOCCOCCN(C)C(=O)CC[C@H](NC(=O)C(CC1CCCCC1)NC(=O)OCc1cccc(Cl)c1)C(O)P(=O)(OCC)OCC (stereo in doubt) [Compound A11, 3-Chlorobenzyl ((13S,16S)-17-cyclohexyl-13-((diethoxyphosphoryl)(hydroxy)methyl)-9-methyl-10,15-dioxo-3,6-dioxa-9,14-diazaheptadecan-16-yl)carbamate] |  |  | > 200 | 114 | 133
3 | CCOCCN(C)C(=O)CC[C@H](NC(=O)C(CC1CCCCC1)NC(=O)OCc1cccc(Cl)c1)C(O)P(=O)(OCC)OCC (stereo in doubt) [Compound A12, 3-chlorobenzyl ((2S)-3-cyclohexyl-1-(((2S)-1-(diethoxyphosphoryl)-5-((2-ethoxyethyl)(methyl)amino)-1-hydroxy-5-oxopentan-2-yl)amino)-1-oxopropan-2-yl)carbamate] |  |  | 5.4 | > 200 | 122
4 | CN(CCc1cccc(Cl)c1)C(=O)CC[C@@H](C=O)NC(=O)[C@H](CC1CCCCC1)NC(=O)OCc1cccc(Cl)c1 (stereo in doubt) [Compound A33, 3-Chlorobenzyl ((S)-1-(((S)-5-((3-chlorophenethyl)(methyl)amino)-1,5-dioxopentan-2-yl)amino)-3-cyclohexyl-1-oxopropan-2-yl)carbamate] |  |  | > 200 | > 200 | 117
5 | CN(CCc1ccccc1)C(=O)CC[C@@H](C=O)NC(=O)[C@H](CC1CCCCC1)NC(=O)OCc1cccc(Cl)c1 (stereo in doubt) [Compound A36, 3-chlorobenzyl ((S)-3-cyclohexyl-1-(((S)-5-(methyl(phenethyl)amino)-1,5-dioxopentan-2-yl)amino)-1-oxopropan-2-yl)carbamate] |  |  | > 200 | 26.9 | 5.2
6 | CCS(=O)(=O)NCCN(C)C(=O)CC[C@@H](C=O)NC(=O)[C@H](CC1CCCCC1)NC(=O)OCc1cccc(Cl)c1 (stereo in doubt) [Compound A38, 3-Chlorobenzyl ((S)-3-cyclohexyl-1-(((S)-5-((2-(ethylsulfonamido)ethyl)(methyl)amino)-1,5-dioxopentan-2-yl)amino)-1-oxopropan-2-yl)carbamate] |  |  | 36 | 30.6 | 10.1
7 | CON(C)C(=O)[C@H](CCC(=O)N(C)CCc1ccccc1Cl)NC(=O)[C@H](CC1CCCCC1)NC(=O)OCc1cccc(Cl)c1 (stereo in doubt) [Compound A39, 3-Chlorobenzyl ((S)-1-(((S)-5-((2-chlorophenethyl)(methyl)amino)-1-(methoxy(methyl)amino)-1,5-dioxopentan-2-yl)amino)-3-cyclohexyl-1-oxopropan-2-yl)carbamate] |  |  | 5.3 | 100 | 119
8 | CCOP(=O)(OCC)C(O)[C@H](CCC(=O)N(C)CCc1ccc(Cl)cc1)NC(=O)C(CC1CCCCC1)NC(=O)OCc1cccc(Cl)c1 (stereo in doubt) [Compound A40, 3-Chlorobenzyl ((2S)-1-(((2S)-5-((4-chlorophenethyl)(methyl)amino)-1-(diethoxyphosphoryl)-1-hydroxy-5-oxopentan-2-yl)amino)-3-cyclohexyl-1-oxopropan-2-yl)carbamate] |  |  | > 200 | 199 | 117
9 | CON(C)C(=O)[C@H](CCC(=O)N1CCCC(c2ccccc2)C1)NC(=O)[C@H](CC1CCCCC1)NC(=O)OCc1cccc(Cl)c1 (stereo in doubt) [Compound A43, 3-chlorobenzyl ((2S)-3-cyclohexyl-1-(((2S)-1-(methoxy(methyl)amino)-1,5-dioxo-5-(3-phenylpiperidin-1-yl)pentan-2-yl)amino)-1-oxopropan-2-yl)carbamate] |  |  | 185 | > 200 | 135
10 | CCOC(=O)NCCN(C)C(=O)CC[C@@H](C=O)NC(=O)[C@H](CC1CCCCC1)NC(=O)OCc1cccc(Cl)c1 (stereo in doubt) [Compound A44, Ethyl ((5S,8S)-1-(3-chlorophenyl)-5-(cyclohexylmethyl)-8-formyl-12-methyl-3,6,11-trioxo-2-oxa-4,7,12-triazatetradecan-14-yl)carbamate] |  |  | > 200 | 28.6 | 10.7
11 | O=C[C@H](CCC(=O)N1CCOC(c2ccccc2)C1)NC(=O)[C@H](CC1CCCCC1)NC(=O)OCc1cccc(Cl)c1 (stereo in doubt) [Compound A45, 3-Chlorobenzyl ((2S)-3-cyclohexyl-1-(((2S)-1,5-dioxo-5-(2-phenylmorpholino)pentan-2-yl)amino)-1-oxopropan-2-yl)carbamate] |  |  | > 200 | 18.8 | 11
12 | CCNC(=O)OCCN(C)C(=O)CC[C@@H](C=O)NC(=O)[C@H](CC1CCCCC1)NC(=O)OCc1cccc(Cl)c1 (stereo in doubt) [Compound A46, 3-Chlorobenzyl ((12S, 15S)-16-cyclohexyl-12-formyl-8-methyl-4,9,14-trioxo-5-oxa-3,8,13-triazahexadecan-15-yl)carbamate] |  |  | > 200 | 28 | 8.6
13 | CN(CCc1ccc(Cl)cc1)C(=O)CC[C@@H](C=O)NC(=O)[C@H](CC1CCCCC1)NC(=O)OCc1cccc(Cl)c1 (stereo in doubt) [Compound A48, 3-Chlorobenzyl ((S)-1-(((S)-5-((4-chlorophenethyl)(methyl)amino)-1,5-dioxopentan-2-yl)amino)-3-cyclohexyl-1-oxopropan-2-yl)carbamate] |  |  | 31 | 63 | 8.7
14 | CC(CN(C)C(=O)CC[C@@H](C=O)NC(=O)[C@H](CC1CCCCC1)NC(=O)OCc1cccc(Cl)c1)c1ccccc1 (stereo in doubt) [Compound A49, 3-Chlorobenzyl ((2S)-3-cyclohexyl-1-(((2S)-5-(methyl(2-phenylpropyl)amino)-1,5-dioxopentan-2-yl)amino)-1-oxopropan-2-yl)carbamate] |  |  | > 200 | 76.7 | 15
15 | O=C[C@H](CCC(=O)N1CCCC(c2ccccc2)C1)NC(=O)[C@H](CC1CCCCC1)NC(=O)OCc1cccc(Cl)c1 (stereo in doubt) [Compound A53, 3-Chlorobenzyl ((2S)-3-cyclohexyl-1-(((2S)-1,5-dioxo-5-(3-phenylpiperidin-1-yl)pentan-2-yl)amino)-1-oxopropan-2-yl)carbamate] |  |  | 16.7 | 82.5 | 6.7
16 | CCN(CCc1ccccc1)C(=O)CC[C@@H](C=O)NC(=O)[C@H](CC1CCCCC1)NC(=O)OCc1cccc(Cl)c1 (stereo in doubt) [Compound A56, 3-Chlorobenzyl ((S)-3-cyclohexyl-1-(((S)-5-(ethyl(phenethyl)amino)-1,5-dioxopentan-2-yl)amino)-1-oxopropan-2-yl)carbamate] |  |  | > 200 | 106 | 9.3
17 | CON(C)C(=O)C1CC(C(=O)N(C)C)CCCCCC(Cc2ccccc2)OC(=O)N[C@@H](CC(C)C)C(=O)N1 (stereo in doubt) [Compound B43, (4S,7S)-15-benzyl-4-isobutyl-N7-methoxy-N7,N9,N9-trimethyl-2,5-dioxo-1-oxa-3,6-diazacyclopentadecane-7,9-dicarboxamide] | 105 | 105 | > 200 |  | 
